Key:
[1] = tested on: optic nerve head astrocytes (ONHA); experiment: ONHA cell viability after tBHP oxidative stress, MTT assay; details: 16 h, then tBHP 40 μM 6 h
Method: Cell viability was assessed using the MTT colorimetric assay.

[2] = tested on: optic nerve head astrocytes (ONHA); experiment: ONHA oxidative stress (ROS) after tBHP, DCF fluorescence; assay type: cell-based, rat; details: 0.05 μM alone, 16 h, then tBHP 80 μM 6 h
Method: CM-H2DCFDA is cleaved to form non-fluorescent H2DCF, which is then oxidized to form the fluorescent DCF. DCF levels are indicative of ROS. Cell viability was also assessed using the commonly used colorimetric MTT assay.

[3] = biological target: Sigma-1 Receptor (S1R) (Homo sapiens (Human), UniProt Q99720); experiment: In-vitro binding assay, Sigma-1 receptor (Eurofins Panlabs); details: Cheng Prusoff equation
[4] = tested on: RGCs; details: two experimental glaucoma models, elevated IOP
[5] = tested on: B104 neuroblastoma cells; details: in-situ ELISA; Geva et al. 2016; cited from earlier work

Chain of Sigma-1 Receptor (S1R) (Q99720 whole entry, species assumed): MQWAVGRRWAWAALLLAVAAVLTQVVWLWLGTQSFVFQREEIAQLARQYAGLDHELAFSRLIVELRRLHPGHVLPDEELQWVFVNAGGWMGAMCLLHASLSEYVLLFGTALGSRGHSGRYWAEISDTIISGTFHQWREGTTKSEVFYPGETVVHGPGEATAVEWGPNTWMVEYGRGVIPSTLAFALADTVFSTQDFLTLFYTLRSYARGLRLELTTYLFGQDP

Row | Structure (SMILES) | increase in cell viability ([1]; 0.01 μM alone) | reduction of oxidative stress (DCF fluorescence) [2] [%] | S1R Ki [3] | increase in cell viability ([1]; 0.1 μM alone) | effect on RGCs [4] | relation of protective effect to IOP [4] | BDNF secretion in rat neuroblastoma cells [5]
1 | CCCN1CCC(O)(c2cccc(S(C)(=O)=O)c2)CC1 [Compound 1] | neither pridopidine (0.05 μM) nor compound 1 (0.01 μM) have any effect | 5 | high affinity | – | – | – | –
2 | CCCN1CC[C@@H](c2cccc(S(C)(=O)=O)c2)[C@@H](O)C1 [Compound 4] | – | – | high affinity | neither pridopidine (0.05 μM) nor compound 4 (0.1 μM) have any effect | – | – | –
3 | CCCN1CCC(c2cccc(S(C)(=O)=O)c2)CC1 [Pridopidine, 4-(3-(Methylsulfonyl)phenyl)-1-propylpiperidine] | – | 30 | – | – | neuroprotective effect | not mediated by lowering IOP | dose dependent increase
